The values that follow come from PubChem BioAssay (NCI).

Holding throughout (experiment): growth of human tumour cells (NCI), 48 h
The subject of assay [1] is BT-549 breast.
Assay [2] relates to MDA-N.
In assay [3] the test system is SF-295 CNS.
In assay [4] the test system is SN12C renal.
The test system of assay [5] is PC-3 prostate.
For assay [6], the system named is HOP-92 NSCLC.
Assay [7] deals with 786-0 renal.
The subject of assay [8] is CAKI-1 renal.
The test system of assay [9] is HCT-15 colon.

Molecules are shown by their SMILES.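 Protocol summary: plate cells (96-well), add compound at 5 concentrations, incubate 48 h, interpolate endpoints linearly. TGI denotes the concentration required for complete inhibition of growth.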 Bounds are passed on as bounds.

For the compound `c1cc(-c2ccc(-c3ccc(-c4ccc(-c5ccncc5)o4)cc3)o2)ccn1`, the TGI in assay [1] came out at 30.7 µM; in [2] it was 31.1 µM; in [3], 30.9 µM; in [4], 45.5 µM; in assay [5], 36.4 µM; in assay [6], 83.7 µM. Moreover, the results for the TGI in assay [7], in assay [8] and in assay [9] were 30.7 µM, 46.7 µM and 28.3 µM, respectively.

As to `CCCNC(=S)N/N=C(\C)c1ccc(S(=O)(=O)N(C)c2ccccc2)cc1`, the TGI in assay [1] was > 100 µM; in assay [2], > 100 µM; in [3], 58 µM; in assay [4] it was > 100 µM; in assay [5], > 100 µM; in assay [6], > 100 µM. Besides, the TGI in [7] was > 72.9 µM; in assay [8], 97.7 µM; in assay [9] it was > 100 µM.

For the compound `CSC1(C)C(=O)Nc2c(OCc3ccccc3)cc([N+](=O)[O-])cc21` (stereo unspecified), the TGI in assay [1] is > 100 µM; in assay [2] it was > 100 µM; in [3], > 100 µM; in assay [4], 34.6 µM; in assay [5], > 100 µM; in assay [6], > 100 µM. Also, the TGI in [7] was 31 µM; in assay [8], > 100 µM; in assay [9], > 100 µM.

For `Cc1ccc(C(=O)Nc2ccc(CP(=O)(O)O)cc2)cc1NC(=O)c1cccc(N)c1`, the TGI in [1], in assay [2], in [3], in [4], in assay [5] and in assay [6] was > 100 µM each time. Besides, the TGI in [7], in [8] and in assay [9] was > 100 µM throughout.

Consider `O=C1c2ccccc2C(=O)N1CCSCC(CO)SCCN1C(=O)c2ccccc2C1=O` (stereo unspecified), for which the TGI in assay [1], in [2], in [3], in assay [4], in assay [5] and in assay [6] was > 100 µM in each case. Further, the TGI in assay [7], in assay [8] and in [9] was > 100 µM each time.

For the compound `O=[N+]([O-])C(/C=C(\Cl)[N+](=O)[O-])=C1Nc2ccccc2N1`, the TGI in assay [1] was > 100 µM; in assay [2], > 100 µM; in [3], > 100 µM; in [4], > 100 µM; in assay [5], > 100 µM; in assay [6], 87 µM. Moreover, the TGI in assay [7] is > 100 µM; in assay [8], 69.4 µM; in [9], > 100 µM.

With `CCOP(=O)(OCC)/C(C#N)=C/c1cccn1C(C)C`, the TGI in assay [1], in assay [2], in assay [3], in [4], in assay [5] and in [6] was > 100 µM in each case. Besides, the TGI in assay [7], in assay [8] and in assay [9] was > 100 µM throughout.

`COc1ccccc1Cc1ccc(C2C=CC3(CC(=O)C=C3C)C(=O)C2)o1` (stereo unspecified): the TGI in [1] is 58.7 µM; in assay [2], 44.2 µM; in assay [3], 65.9 µM; in [4] it was 58.5 µM; in assay [5], 38.3 µM; in assay [6] it was 75.6 µM. Besides, the TGI in assay [7] is 41.9 µM; in assay [8], > 100 µM; in [9] it was 81.4 µM.

Turning to `Cc1ccc(C2(c3ccc(Cl)cc3)c3ccccc3C3=NCCN32)cc1` (stereo unspecified), the TGI in assay [1] was determined as 25.9 µM; in assay [2], 12.4 µM; in assay [3], 20.6 µM; in assay [4], 29.7 µM; in assay [5], 21.6 µM; in [6], 18.1 µM. Moreover, the TGI in [7] was 26.9 µM; in assay [8], 37.9 µM; in assay [9], 24 µM.

Turning to `NNC(=O)CC(=O)Nc1cccc(Cl)c1`, the TGI in [1], in assay [2], in assay [3], in assay [4], in [5] and in assay [6] was > 100 µM throughout. In addition, the TGI in assay [7], in [8] and in [9] was > 100 µM in each case.

`Cc1c(C)c(C)c(Cn2[nH]c(=O)n(C)c2=O)c(C)c1C`: the TGI in assay [1], in assay [2], in [3], in [4], in assay [5] and in assay [6] was > 100 µM each time. For the same compound, the TGI in assay [7], in assay [8] and in assay [9] was > 100 µM each time.

As to `COc1ccc(OC)c(NCC(=O)Nn2cnc3ccc(S(=O)(=O)Nc4cc(OC)ccc4OC)cc3c2=O)c1`, the TGI in assay [1], in assay [2], in assay [3], in assay [4], in [5] and in [6] was > 100 µM throughout. Besides, the TGI in assay [7], in assay [8] and in assay [9] was > 100 µM each time.

Turning to `NC(N)=NS(=O)(=O)c1ccc(N/N=C2/CCOC2=O)cc1`, the TGI in [1], in [2], in [3], in assay [4], in [5] and in assay [6] was > 100 µM in each case. In addition, the TGI in assay [7], in [8] and in assay [9] was > 100 µM each time.

As to `COc1ccc(/C=C/C(=O)/C=C/c2ccc(OC)cc2OC)c(OC)c1`, the TGI in assay [1] is 48 µM; in assay [2], 6 µM; in [3] it was 72.5 µM; in assay [4], 65.2 µM; in assay [5], 44.2 µM; in assay [6] it was 67.5 µM. The TGI in [7] turned out to be 29 µM; in assay [8], 23.4 µM; in assay [9], 20 µM.
